Counter-ions that a name gives are not always drawn.
Columns and labels:
Candida albicans = assay: minimum inhibitory concentration, antimicrobial spectrum (Table I); type: cell-based; conditions: 32 P.P.M.
Description: (§1) The compounds listed in Table I below were tested for their antibacterial spectrum by the method of:
(§2) Silverblatt, F. and M. Turck, 1969. Antimicrobial Agents and Chemothreapy; 1968, p. 279-285.
(§3) Wallace, J. F., E. Atlas, D. M. Bear, N. K. Brown, H. Clark and M. Turk, 1971. Antimicrobial Agents and Chemotherapy; 1970, p. 223-266.

Pseudomonas aeruginosa = assay: minimum inhibitory concentration, antibacterial spectrum (Table I); type: cell-based; conditions: 32 P.P.M.
Description: as §1, §2, §3

Staphylococcus aureus = assay: as above; type: cell-based; conditions: 32 P.P.M.
Description: as §1, §2, §3

Escherichia coli = assay: as above; type: cell-based; conditions: 32 P.P.M.
Description: as §1, §2, §3

Streptococcus pyogenes = assay: minimum inhibitory concentration / in vitro spectrum of activity; type: cell-based; conditions: footnote of Table I
Description: as §1, §2, §3

Klebsiella pneumonia = assay: as above; type: cell-based; conditions: Klebsiella pneumoniae, footnote of Table I
Description: as §1, §2, §3

Salmonella typhosa = assay: as above; type: cell-based; conditions: Salmonella enterica, read-out: minimum inhibitory concentration (MIC)
Description: as §1, §2, §3

Diplococcus pneumoniae = assay: as above; type: cell-based; conditions: Streptococcus pneumoniae, footnote of Table I
Description: as §1, §2, §3

[1] = LD50 upon oral administration to mice; conditions: mouse, in vivo

Compound	MIC (Pseudomonas aeruginosa) [µg/mL]	MIC (Staphylococcus aureus) [µg/mL]	MIC (Escherichia coli) [µg/mL]	also measured
Cc1ccc2nc(NC(=N)NCCCCCNC(=N)Nc3nc4ccc(C)cc4[nH]3)[nH]c2c1 [Compound 1074, N'-N"-bis-[2-(6-methylbenzimidazole)]-2,8-diazanonane diimidamide dihydrochloride hemipentahydrate]	8	8	4	MIC (Candida albicans): 16 µg/mL
N=C(NCCCCCCCNC(=N)Nc1nc2ccccc2[nH]1)Nc1nc2ccccc2[nH]1 [Compound 1046, N'-N"-bis-[2-benzimidazole]-2,10-diazaundecane diimidamide dihydrochloride]		8	8	MIC (Candida albicans): 16 µg/mL
Cc1ccc2nc(NC(=N)NCCCCCCNC(=N)Nc3nc4ccc(C)cc4[nH]3)[nH]c2c1 [Compound 1081, N'-N"-bis-[2-(6-methyl-benzimidazole)]-2,9-diazadecane diimidamide dihydrochloride dihydrate]	8	1	1	MIC (Candida albicans): 8 µg/mL
N=C(NCCCCCNC(=N)Nc1nc2ccccc2[nH]1)Nc1nc2ccccc2[nH]1 [Compound 1079, N'-N"-bis-[2-benzimidazole]-2,8-diazanonane diimidamide dihydrochloride dihydrate]		8	8	
N=C(NCCNC(=N)Nc1nc2ccccc2[nH]1)Nc1nc2ccccc2[nH]1 [Compound 1069, N'-N"-bis[2-benzimidazole]-2,5-diazahexane diimidamide dihydrochloride]			32	
N=C(NCCNC(=N)Nc1nc2ccc(Cl)cc2[nH]1)Nc1nc2ccc(Cl)cc2[nH]1 [Compound 1105, N'-N"-bis-[2-(6-chlorobenzimidazole)]-2,5-diazahexanediimidamide dihydrochloride sesquihydrate]		5		
N=C(NCCCCCNC(=N)Nc1nc2ccc(Cl)cc2[nH]1)Nc1nc2ccc(Cl)cc2[nH]1 [Compound 1075, N'-N"-bis-[2-(6-chlorobenzimidazole)]-2,8,diazanonane diimidamide dihydrochloride hydrate]		2	2	
N=C(NCCCCCCCCNC(=N)Nc1nc2ccccc2[nH]1)Nc1nc2ccccc2[nH]1 [Compound 1080, N'-N"-bis-[2-benzimidazole]-2,11-diazadodecane diimidamide dihydrochloride dihydrate]		1	1	
N=C(NCCCCCCNC(=N)Nc1nc2cc(Cl)c(S(N)(=O)=O)cc2[nH]1)Nc1nc2cc(Cl)c(S(N)(=O)=O)cc2[nH]1 [Compound 1045, N'-N"-bis-[2-(5'-chloro-6'-sulfamylbenzimidazole)]-2,9-diazadecane diimidamide dihydrochloride]			8	
Cc1ccc2nc(NC(=N)NCCNC(=N)Nc3nc4ccc(C)cc4[nH]3)[nH]c2c1 [Compound 1072, N'-N"-bis-[2-(6-methylbenzimidazole)]-2,5-diazahexane diimidamide dihydrochloride monohydrate]	16	16	4	
N=C(NCCCCCCNC(=N)Nc1nc2ccccc2[nH]1)Nc1nc2ccccc2[nH]1 [Compound 1024, N'-N"-bis-[2-benzimidazole]-2,9-diazadecane diimidamide dihydrochloride]	16	4	4	MIC (Streptococcus pyogenes): 1 µg/mL; MIC (Klebsiella pneumonia): 500 µg/mL; MIC (Salmonella typhosa): 4 µg/mL; MIC (Diplococcus pneumoniae): 2 µg/mL; LD50 [1]: 4000 mg/kg
